# Reference: patent US5232684A, “Labelled resiniferatoxin, compositions thereof, and methods for using the same” (priority 1990, dated 1993)
# Test system: capsaicin receptor (cow DRG)
# Assay: [^3H]RTX binding to cow DRG membranes
# Settings: DRG from cows
smiles,measurement,value
"C=C(C)[C@]12C[C@@H](C)[C@@]34O[C@](Cc5ccccc5)(O[C@@H]1[C@@H]3C=C(COC(=O)Cc1ccc(O)c(OC)c1)C[C@]1(O)C(=O)C(C)=C[C@@H]41)O2 [[^3 H]RTX, [^3 H]resiniferatoxin]",specific binding,Specific binding is observed
